Measurements from ChEMBL document CHEMBL1201862, “PubChem BioAssay data set” (2004).
Activity calls are given as the source filed them.

Tests used:
[1] = biological target: Acyl-homoserine lactone acylase PvdQ (Pseudomonas aeruginosa (strain LESB58), UniProt Q9I194); assay: PvdQ acylase enzyme activity blockers – biochemical, fluorescence, plate reader and imaging, cherry-picks, dose response (AID 493231)
[2] = Luminescence Cell-Based Dose Confirmation HTS to Identify Inhibitors of Platelet Dense Granule Release. [Related pubchem assays: 1663 (Primary HTS), 1678 (Summary of Project)]; type: functional
[3] = blockers of HIV-1 ZM109 envelope-driven cell-cell fusion – HeLa effector, CEM target cells, luciferase, cherry-pick, dose response (AID 652058); type: functional, cell-based;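 note: luciferase signal from HIV-1 Env mediated cell-cell fusion of effector and target cells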
[4] = off-target signal loss in HeLa-CEM21 co-culture – HeLa F-luc CTL cells, cherry-picked, counter-screen for HIV-1 Env fusion inhibitor project, dose response (AID 652040); type: functional, cell-based;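 note: potency for signal decrease marking cytotoxic or nonspecific inhibition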
[5] = HIV-1 AD8 envelope cell-cell fusion blockers – cherry-pick, dose response (AID 652062); type: functional, cell-based;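 note: luciferase signal from cell-cell fusion driven by HIV-1 clade B AD8 Env; potency is for inhibitors of fusion seen as a drop in luminescence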
[6] = general cell-killing toxicity readout – plate reader, dry powder samples, cytotoxicity control for PAX8 inhibitor project, dose response (AID 743021); type: functional, cell-based
[7] = blockers of HIV-1 envelope-mediated cell-cell fusion – cherry-pick, dose response (AID 652057); type: functional, cell-based
[8] = ADP-Glo luciferase signal interference – biochemical, luminescence, cherry-picked samples, set 2, artefact control for CDK5 inhibitor project, dose response (AID 504546); type: functional, cell-based
[9] = viability loss in CEM21 cells – cell-based, CellTiter-Glo luminescence, cherry-picked, cytotoxicity control for viral fusion inhibitor project, dose response (AID 652042); type: functional;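 note: potency for signal decrease meaning cytotoxicity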
[10] = HPDE-C7 pancreatic duct cell viability loss – fluorescence, HTS (AID 430); type: functional, cell-based; conditions: Homo sapiens
[11] = biological target: Neurotensin receptor type 1 (Homo sapiens, UniProt P30989); type: functional;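 note: Image-based confirmatory dose-response assay measuring agonist activity at NTR1; NTR1-expressing U2OS osteosarcoma cells imaged for beta-arrestin GFP spot formation; agonist potency where compounds increase beta-arrestin recruitment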
[12] = viability loss of HPDE-C7K cells – cell-based, fluorescence, HTS, primary screen (AID 431); type: functional; conditions: Homo sapiens
[13] = biological target: Cytochrome P450 2D6 (Homo sapiens, UniProt P10635); assay: qHTS Assay for Inhibitors and Substrates of Cytochrome P450 2D6. [Related pubchem assays: 410 ]; type: ADME; conditions: read-out: Potency
[14] = biological target: Cytochrome P450 2C9 (Homo sapiens, UniProt P11712); conditions: Potency
[15] = biological target: FAD-linked sulfhydryl oxidase ALR (Homo sapiens, UniProt P55789); assay: ALR-catalysed DTT oxidation blockers – biochemical, H2O2 detection, luminescence, cherry-pick, dose response (AID 493248)
[16] = biological target: Nonstructural protein 1 (Influenza A virus, UniProt Q194T2); type: functional, Influenza A virus (A/California/07/2009(H1N1))
[17] = system: Streptococcus sp. 'group A'; assay: Streptococcus pyogenes SK(-)GAS viability under kanamycin – luminescence, BacTiterGlo, confirmation, counter-screen for streptokinase expression inhibitor project, dose response (AID 1900); type: functional, organism-based
[18] = biological target: Transitional endoplasmic reticulum ATPase (Homo sapiens, UniProt P55072, C522A); assay: C522A mutant p97 ATPase inhibitors, dose response, counter-screen for p97 inhibitor project, biochemical, luminescence (AID 1544)
[19] = system: Streptococcus; assay: GAS UMAA2166 growth inhibition – luminescence, BacTiterGlo, counter-screen for streptokinase expression inhibitor project, dose response (AID 1915); type: functional, organism-based;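 note: potency for reduction of bacterial viability or growth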
[20] = biological target: T1, Streptokinase A (Streptococcus pyogenes serotype M1, UniProt P10520); assay: viability-normalized secreted streptokinase activity reduction – plasminogen activation absorbance, OD405, dose response (AID 1914); type: functional, Streptococcus pyogenes M1 GAS;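 note: secreted streptokinase activity via plasminogen activation per viability signal from cell pellet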
T1 sequence (P10520 whole entry): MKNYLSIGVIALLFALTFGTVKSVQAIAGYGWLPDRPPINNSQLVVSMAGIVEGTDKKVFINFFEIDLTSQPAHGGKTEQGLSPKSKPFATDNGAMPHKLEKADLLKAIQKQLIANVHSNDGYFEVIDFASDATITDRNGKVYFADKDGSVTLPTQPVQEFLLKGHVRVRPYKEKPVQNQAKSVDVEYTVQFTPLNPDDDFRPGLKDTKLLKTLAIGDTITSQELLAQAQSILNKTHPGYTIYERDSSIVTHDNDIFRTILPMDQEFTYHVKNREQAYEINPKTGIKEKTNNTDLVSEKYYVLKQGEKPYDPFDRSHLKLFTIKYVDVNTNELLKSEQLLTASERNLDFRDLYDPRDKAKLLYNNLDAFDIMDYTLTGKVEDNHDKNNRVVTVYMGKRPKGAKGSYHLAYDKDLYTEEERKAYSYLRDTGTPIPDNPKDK

[21] = IC50 of Artemis nuclease activity blockers – biochemical, fluorescence intensity, dose response (AID 720701); type: functional;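 note: Artemis endonuclease enzyme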
[22] = biological target: Transitional endoplasmic reticulum ATPase (Homo sapiens, UniProt P55072); assay: p97 ATPase inhibitors, dose response, biochemical (AID 1534)
[23] = biological target: T2, Eukaryotic translation initiation factor 2-alpha kinase 3 (Homo sapiens, UniProt Q9NZJ5); assay: Dose response cell-based high-throughput screening assay to measure PERK inhibition. [Related pubchem assays: 1416 ]; type: functional
[24] = biological target: T2, Eukaryotic translation initiation factor 2-alpha kinase 3; assay: Counterscreen assay for PERK inhibitors: Dose response cell-based high throughput screening assay to measure inhibition of PERK at 6 hours. [Related pubchem assays: 1522, 1416 ]; type: functional
[25] = biological target: T3, Alkaline phosphatase, tissue-nonspecific isozyme (Homo sapiens, UniProt P05186)
T3 sequence (P05186 whole entry): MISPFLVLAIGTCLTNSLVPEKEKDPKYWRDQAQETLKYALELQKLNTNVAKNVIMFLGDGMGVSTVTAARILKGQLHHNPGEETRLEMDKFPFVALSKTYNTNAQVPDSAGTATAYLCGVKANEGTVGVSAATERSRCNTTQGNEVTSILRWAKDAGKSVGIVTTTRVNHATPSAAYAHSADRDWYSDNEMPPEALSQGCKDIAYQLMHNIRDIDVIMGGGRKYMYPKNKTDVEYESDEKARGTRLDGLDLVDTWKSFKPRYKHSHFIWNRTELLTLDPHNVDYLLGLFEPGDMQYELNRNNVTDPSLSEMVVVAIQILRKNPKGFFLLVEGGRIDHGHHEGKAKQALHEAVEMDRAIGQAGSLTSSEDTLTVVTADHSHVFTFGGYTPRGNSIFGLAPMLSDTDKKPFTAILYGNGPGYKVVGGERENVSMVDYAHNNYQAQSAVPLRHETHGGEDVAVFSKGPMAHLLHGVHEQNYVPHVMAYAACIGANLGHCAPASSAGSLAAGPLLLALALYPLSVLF

Cc1cc(C)nc(N(C#N)Cc2cccc([N+](=O)[O-])c2)n1
AC50 [1]: 4.72 µM (active)

COc1ccc(C(=O)O/N=C(\N)c2ccccn2)cc1
EC50 [2]: 0.962 µM (active)
AC50 [3]: 19.4 µM (active)
AC50 [4]: 7.65 µM (active)
AC50 [5]: 11.9 µM (active)
AC50 [6]: 30 µM (active)
AC50 [7]: 2.26 µM (active)
AC50 [8]: 19.8 µM (active)
AC50 [9]: 21.6 µM (active)

Cc1sc(NC(=O)c2ccco2)nc1-c1ccc2c(c1)CC(C)N2C(=O)C1CC1 (stereo not given)
EC50 [10]: 7.02 µM (active)
EC50 [11]: 30.2 µM (inactive)
EC50 [12]: 7.22 µM (active)

Clc1nc(NCCc2ccccc2)c2ncn(-c3ccccc3)c2n1
AC50 [13]: 3.98 µM (inconclusive)
AC50 [14]: 7.94 µM (inconclusive)

O=C(NNc1c2ccccc2nc2ccccc12)c1ccc(O)cc1O
AC50 [15]: 0.062 µM (active)
IC50 [16]: 32.1 µM (active)
EC50 [17]: 2.59 µM (active)
IC50 [18]: > 50 µM (not active)
EC50 [19]: 23.7 µM (active)
EC50 [20]: > 150 µM (not active)
IC50 [21]: 13.3 µM (active)
IC50 [22]: > 50 µM (not active)

Cc1nsc(N)c1C(=O)O
EC50 [23]: > 55.7 µM (not active)
EC50 [24]: > 55.7 µM (not active)

COc1ccccc1CNC(=O)C1(NC(=O)Nc2ccc(C)cc2)CCCCC1
EC50 [25]: 37.3 µM (active)
